Results from patent US20210137950A1, “Pharmaceutical Composition for Treating Cerebral Infarction” (Kyoto University, priority 2018, published 2021).

What was measured:
C57BL/6 mice [1] = experiment: Accelerating rotarod test after transient focal cerebral ischemia (distal MCAO with hypoxia); assay type: in vivo; conditions: KUS121 immediately after occlusion (100 mg/kg intravenously and 50 mg/kg intraperitoneally), 24 hours after occlusion, vehicle (5% Cremophor) 134.5±18.4, p<0.05, mean±SE
Method: (§1) Adult male C57BL/6 (C57BL/6NJcl) and CB-17 (CB-17/lcr-+/+Jcl) mice (6-7 weeks old) were purchased from Shimizu Laboratory supplies and Clea Japan, respectively. Animals were allowed access to food and water ad libitum.
(§2) In C57BL/6 mice, distal MCAO with hypoxia was performed as previously described with some modifications (Doyle K P, Fathali N, Siddiqui M R, et al. Distal hypoxic stroke: a new mouse model of stroke with high throughput, low variability and a quantifiable functional deficit. Journal of Neuroscience Methods, 2012 May 30; 207(1):31-40). Mice were placed in a large chamber containing 10% oxygen and 90% nitrogen after the occlusion of the distal MCA by a nylon suture. After 30 minutes of hypoxia, mice were returned to normoxic condition with removal of the nylon suture. Sham surgery were identical to the stroke surgery, except for the occlusion of the distal MCA.
Twenty-four hours after ischemia, mice were placed on an accelerating rotarod apparatus, in which the speed was accelerated from 0 to 40 rpm over 4 minutes. The time for which mice can remain on the rotating cylinder was measured. Three trials were performed and the best latency to fall was used. […]

primary cortical neurons [2] = experiment: MAP2 immunocytochemistry after OGD; assay type: cell-based, rat; conditions: 100 μM KUS, vehicle (DMSO) 0.87±0.13%, p<0.05, mean±SE
Method: (§3) Cortical neuronal cultures were prepared from 17-day-old Sprague Dawley rat embryos (Shimizu Laboratory Supplies) using methods described earlier (Maki T, et al, Annals of Clinical and Translational Neurology, 2014 August; 1(8):519-33). Briefly, cortices were dissected and dissociated. Cells were plated on dishes coated with poly-D-lysine in Dulbecco's modified Eagle's medium (DMEM) containing 5% heat-inactivated fetal bovine serum and 1% penicillin/streptomycin at a density of 200,000-250,000 cells/cm^2. At 24-hour after seeding, the medium was changed to Neurobasal (NB) medium containing 0.5 mM glutamine, 1% penicillin/streptomycin and 2% B27 supplement. Cultured neurons were used for experiments 14 days after seeding.
(§4) The medium was replaced with DMEM with no glucose. Then, the cells were placed into the sealed Anaero container with an Anaero Pack (Mitsubishi Gas Chemical Company) for 1.5-2 hours. Following oxygen glucose deprivation, cells were switched to the normal medium and returned to a normoxic 5% CO2 incubator.
The cells were washed twice with phosphate buffered saline (PBS), followed by 4% paraformaldehyde (PFA) for 15 minutes. After being further washed twice with PBS, they were incubated with PBS/0.1% Tween (10 min) and blocked with 3% BSA/PBS (1 hour at room temperature). […]

primary cortical neurons [3] = experiment: ATP assay (luciferase-based) after OGD; assay type: cell-based, rat
Method: as §3
The medium was replaced with DMEM with no glucose. Then, the cells were placed into the sealed Anaero container with an Anaero Pack (Mitsubishi Gas Chemical Company) for 1.5-2 hours. […]
ATP levels in cell lysates were measured with luciferase chemiluminescence-based ATP assay reagent for cells (Toyo Ink) in accordance with the manufacturer's protocol. […] After incubating for 5 minutes at room temperature, luminescence of an aliquot of the solution was measured in a luminometer.
Cellular ATP levels were measured by the luciferase-based assay after 1.5 hour OGD. […]

CB-17 mice = experiment: Infarction volume after transient focal cerebral ischemia (distal MCAO); assay type: in vivo; conditions: KUS121 immediately before the ischemia, vehicle (5% Cremophor) 11.8±0.60%, p<0.05, mean±SE
Method: as §1
In CB-17 mice, distal middle cerebral artery occlusion (distal MCAO) was performed as previously described with minor modifications (Kasahara Y, Ihara M, Nakagomi T, et al. A highly reproducible model of cerebral ischemia/reperfusion with extended survival in CB-17 mice. Neuroscience Research, 2013 July; 76(3):163-8). In brief, general anesthesia was induced and maintained by inhalation of 4% and 1.5% isoflurane (Pfizer), respectively. Mice were placed in a lateral position, and a skin incision was made between the left eyeball and the left external auditory canal. The left salivary gland and a part of the temporalis muscle were resected to allow visualization of the middle cerebral artery (MCA) through the cranial bone. A burr hole was made in the cranial bone. […] During surgery, rectal temperature was monitored and controlled at 36.0-37.2° C. by a feedback-regulated heating pad.
(§5) Mice were deeply anesthetized and perfused transcardially with PBS and 4% PFA 24 hours after ischemia. […] The area of the ipsilateral hemisphere and the area of the infarct on each section were measured using NIH imageJ software. […]

[4] = test system: C/EBP-homologous protein (CHOP); experiment: Western blot of CHOP expression after tunicamycin treatment (ER stress); assay type: cell-based, rat; conditions: 0.25 μg/mL tunicamycin for 6 hours
Method: as §3
(§6) Cells were collected and lysed in RIPA buffer (20 mM HEPES-KOH pH 7.4, 150 mM NaCl, 2 mM EDTA, 1% Nonidet-P40, 1% sodium deoxycholate) containing 10% 2-mercaptoethanol (Nacalai tesque) and 1% protease inhibitor (Nacalai tesque). Dissected brain samples were homogenized in the RIPA buffer with 2-mercaptomethanol and protease inhibitor. Samples were sonicated and centrifuged at 4° C., 15,000 rpm for 15 minutes, and the supernatants were collected. Proteins (15-20 μg per lane) were loaded, and were separated by 5-20% SDS-PAGE and transferred to polyvinylidene fluoride membranes (Millipore). […]

C57BL/6 mice [5] = experiment: Infarction volume after transient focal cerebral ischemia (distal MCAO with hypoxia); assay type: in vivo; conditions: KUS121 immediately after occlusion (100 mg/kg intravenously and 50 mg/kg intraperitoneally), 24 hours after ischemia, vehicle (5% Cremophor) 8.8±0.63%, p<0.05, mean±SE
Method: as §1, §2
as §5, with “ischemia. The brains were extracted and post-fixed in 4% PFA for 48 hours. They were further cryoprotected in 20% sucrose until they sunk to the bottom of the vial.” for “ischemia.”

NeuN = experiment: Western blotting of NeuN in cerebral cortex after transient focal cerebral ischemia; assay type: in vivo; conditions: CB-17 mice, KUS121 before ischemia
Method: as §6, with “(Millipore). The following primary antibodies were used: β-actin (1:5000, Sigma Aldrich, A5441), CHOP (1:1000, Cell Signaling Technology, L63F7), NeuN (1:2000, Merck Millipore, ABN78), VCP (1:500, ABGENT, AP6920b). HRP-labeled secondary antibodies (Santa Cruz Biotechnology) were used for visualization by enhanced chemiluminescence (Nacalai tesque).” for “(Millipore).”
In CB-17 mice, distal middle cerebral artery occlusion (distal MCAO) was performed as previously described with minor modifications (Kasahara Y, Ihara M, Nakagomi T, et al. A highly reproducible model of cerebral ischemia/reperfusion with extended survival in CB-17 mice. Neuroscience Research, 2013 July; 76(3):163-8). […] During surgery, rectal temperature was monitored and controlled at 36.0-37.2° C. by a feedback-regulated heating pad. […]

primary cortical neurons [6] = experiment: Cell viability test (CCK-8) after oxygen-glucose deprivation (OGD); assay type: cell-based, rat; conditions: for neuronal viability after OGD: 2 hours OGD + 22 hours recovery, vehicle (DMSO) 18.1±1.9%, p<0.001, mean±SE
Method: as §3, §4
Cell viability was assessed by Cell Counting Kit-8 (CCK-8) assay (Dojindo Laboratories). The CCK-8 assay is based on the conversion of a water-soluble tetrazolium salt, 2-(2-methoxy-4-nitrophenyl)-3-(4-nitrophenyl)-5-(2,4-disulfophenyl)-2H-tetrazolium, monosodium salt (WST-8), to a water-soluble formazan dye upon reduction by dehydrogenases in the presence of an electron carrier. The cells were incubated with 10% CCK-8 solution for 1-2 hour at 37° C. Then the absorbance of the culture medium was measured with a microplate reader at a test wavelength of 450 nm and a reference wavelength of 630 nm.
To assess protective effects of KUS121 on neurons in ischemic conditions, cell viability tests were performed after oxygen-glucose deprivation (OGD) in both the presence and the absence of KUS121 (FIG. 1, top). OGD was performed in rat cortical primary neuronal cultures for 2 hours with subsequent recovery at 21% 02 and glucose-containing media for further 22 hours. Control neurons were kept at 21% 02 in glucose-containing media for 24 hours. […]

Cc1cc(F)ccc1-c1ccc(N=Nc2cc(S(=O)(=O)[O-])c3ccccc3c2N)cn1.[Na+] [KUS121, 4-amino-3-[6-(4-fluoro-2-methylphenyl)pyridine-3-ylazo]naphthalene-1-sulfonic acid sodium salt]
rotarod retention time (C57BL/6 mice [1]): 201.0 ± 21.8 s | MAP2-positive area (primary cortical neurons [2]): 2.64±0.41% | ATP levels (primary cortical neurons [3]; 100 μM KUS, after 1.5 hour OGD, vehicle (DMSO) 14.3±1.1%, p<0.001, mean±SE): 28.0±2.3% | ATP levels without OGD (primary cortical neurons [3]; without OGD): no effect | infarction volumes (CB-17 mice): 5.74±1.64% | expression of CHOP [4]: suppressed | infarction volumes (C57BL/6 mice [5]): 4.7±1.70% | expression of NeuN in cerebral cortex (NeuN): preserved | neuronal viability after OGD (primary cortical neurons [6]; 100 μM KUS throughout): 43.5±3.1% | neuronal viability after OGD (primary cortical neurons [6]; 200 μM KUS throughout): 42.4±3.7% | neuronal viability without OGD (primary cortical neurons [6]; without OGD): no effect
